Source: paper PMC6956804, “Potent antibacterial activity of MSI-1 derived from the magainin 2 peptide against drug-resistant bacteria” (Theranostics, 2020)
Where a name gives a salt, the structure may show the parent alone.

Legend:
MRSA M101 = test: microbe, parasite or virus in culture; format: cell-based, Staphylococcus aureus; settings: Staphylococcus aureus, MRSA
Method: (§1) Bacterial strains were purchased from the American Type Culture Collection (ATCC). All clinical strains were isolated from human clinical specimens by the Medical Laboratory Center of Zhongda Hospital (Nanjing, Jiangsu, China). Ndm-1, tem-1, ctx-m-1, shv-1 -carrying bacteria were constructed as previously described. The recombinant bacteria carrying drug-resistant genes were prepared in LB nutrient and induced by IPTG (1 mM) for 4 h before text. Other bacterial strains were respectively prepared in MHB and Columbia Blood Agar Base.
(§2) A standard micro-broth serial dilution assay was used to measure MIC of peptides. MIC was obtained by a microplate reader at 600 nm. MBC was determined as previously described.

MSSA D1 = test: microbe, parasite or virus in culture; format: cell-based, Staphylococcus aureus; settings: Staphylococcus aureus; MSSA D1, clinical strain; read-out: MIC
Method: as §1, §2

MSSA D4 = test: microbe, parasite or virus in culture; format: cell-based, Staphylococcus aureus; settings: Staphylococcus aureus; MSSA D4, clinical strain; read-out: MIC
Method: as §1, §2

MRSA M108 = test: microbe, parasite or virus in culture; format: cell-based, Staphylococcus aureus; settings: Staphylococcus aureus, MRSA
Method: as §1, §2

PISP F34 = test: microbe, parasite or virus in culture; format: cell-based, Streptococcus pneumoniae; settings: Streptococcus pneumoniae; PISP F34, clinical strain; read-out: MIC
Method: as §1, §2

PISP F22 = test: microbe, parasite or virus in culture; format: cell-based, Streptococcus pneumoniae; settings: Streptococcus pneumoniae; PISP F22, clinical strain; read-out: MIC
Method: as §1, §2

PRSP P105 = test: microbe, parasite or virus in culture; format: cell-based, Streptococcus pneumoniae; settings: Streptococcus pneumoniae, PRSP
Method: as §1, §2

PRSP P112 = test: microbe, parasite or virus in culture; format: cell-based, Streptococcus pneumoniae; settings: Streptococcus pneumoniae, PRSP
Method: as §1, §2

[1] = tested on: K. peneumoniae B9 (ESBLs (+)); test: organism not typed; format: cell-based
Method: as §1, §2

K. peneumoniae ATCC4352 = test: organism not typed; format: cell-based; settings: read-out: MIC
Method: as §1, §2

[2] = tested on: K. peneumoniae B6 (ESBLs (+)); test: organism not typed; format: cell-based
Method: as §1, §2

[3] = tested on: K. peneumoniae B4 (ESBLs (+)); test: organism not typed; format: cell-based
Method: as §1, §2

MSSE E8 = test: microbe, parasite or virus in culture; format: cell-based, Staphylococcus epidermidis; settings: Staphylococcus epidermidis; MSSE E8, clinical strain; read-out: MIC
Method: as §1, §2

MRSE N104 = test: microbe, parasite or virus in culture; format: cell-based, Staphylococcus epidermidis; settings: Staphylococcus epidermidis, MRSE
Method: as §1, §2

MSSE E3 = test: microbe, parasite or virus in culture; format: cell-based, Staphylococcus epidermidis; settings: Staphylococcus epidermidis; MSSE E3, clinical strain; read-out: MIC
Method: as §1, §2

MRSE N109 = test: microbe, parasite or virus in culture; format: cell-based, Staphylococcus epidermidis; settings: Staphylococcus epidermidis, MRSE
Method: as §1, §2

E. cloacae S3 (AmpC (+)) = test: microbe, parasite or virus in culture; format: cell-based; settings: Enterobacter cloacae
Method: as §1, §2

E. faecalis = test: microbe, parasite or virus in culture; format: cell-based; settings: Enterococcus faecalis, read-out: MIC
Method: as §1, §2

P. aeruginosa ATCC27853 = test: microbe, parasite or virus in culture; format: cell-based; settings: Pseudomonas aeruginosa, read-out: MIC
Method: as §1, §2

[4] = tested on: P. aeruginosa T1 (ESBLs (+)); test: microbe, parasite or virus in culture; format: cell-based; settings: Pseudomonas aeruginosa
Method: as §1, §2

E. coli A2 (ESBLs (+)) = test: microbe, parasite or virus in culture; format: cell-based; settings: Escherichia coli
Method: as §1, §2

[5] = tested on: P. aeruginosa T6 (ESBLs (+)); test: microbe, parasite or virus in culture; format: cell-based; settings: Pseudomonas aeruginosa
Method: as §1, §2

E. faecium = test: microbe, parasite or virus in culture; format: cell-based; settings: Enterococcus faecium, read-out: MIC
Method: as §1, §2

[6] = tested on: P. aeruginosa T8 (ESBLs (+)); test: microbe, parasite or virus in culture; format: cell-based; settings: Pseudomonas aeruginosa
Method: as §1, §2

E. coli ATCC25922 = test: microbe, parasite or virus in culture; format: cell-based; settings: Escherichia coli, micro-broth serial dilution, 600 nm, read-out: MIC
Method: as §1, §2

S. pneumoniae ATCC 49619 = test: microbe, parasite or virus in culture; format: cell-based; settings: Streptococcus pneumoniae, ATCC49619, read-out: MIC
Method: as §1, §2

Shigella flexneri = test: microbe, parasite or virus in culture; format: cell-based
Method: as §1, §2

E. coli A5 (ESBLs (+)) = test: microbe, parasite or virus in culture; format: cell-based; settings: Escherichia coli
Method: as §1, §2

E. coli A9 (ESBLs (+)) = test: microbe, parasite or virus in culture; format: cell-based; settings: Escherichia coli
Method: as §1, §2

S. epidermidis ATCC35984 = test: microbe, parasite or virus in culture; format: cell-based; settings: Staphylococcus epidermidis, read-out: MIC
Method: as §1, §2

E. cloacae S1 (AmpC (+)) = test: microbe, parasite or virus in culture; format: cell-based; settings: Enterobacter cloacae
Method: as §1, §2

S. aureus ATCC25923 = test: microbe, parasite or virus in culture; format: cell-based; settings: Staphylococcus aureus, read-out: MIC
Method: as §1, §2

[7] = tested on: Penicillin-resistant E. coli; test: Local E. coli infection in scalded mouse model; format: in vivo, mice; settings: 7th day; MSI-1 5 and 10 mg/kg, polymyxin B; p<0.01 vs the model group
Method: To further investigate whether MSI-1 could protect from bacterial infection of the skin, mice were anesthetized with pentobarbital sodium (50 mg/kg, i.p) and shaved on the dorsal surfaces. The depilated skin was secured with 2-cm-diameter plastic containers that filled up with boiling water at contact time 10 s. Afterwards, a full-thickness wound (2 cm in diameter) was cut on the burned skin of each mouse. Penicillin-resistant E. coli suspension (100 µl, 1× 10^10 CFU/ml) was slowly inoculated over wound with a pipette tip, and a gentle stream of air was aimed over the inoculation site until skin appeared wet but absent of any standing volume from the inoculum suspension. Two hours later, vehicle (3% CMC-Na), MSI-1 or polymyxin, which was suspended in sterile CMC-Na (3%) in PBS at concentration of 10, 5, 2.5 mg/ml (MSI-1) or 5 mg/ml (polymyxin), was inoculated on the same area with a pipette tip, 1 ml/kg, once a day (n=15 per group). Mice were fed in cages individually to avoid cross infection and were treated daily for 7 consecutive days. At 3rd and 7th days, cutaneous wound healing and bacteria counts in skin lesion were measured. Moreover, 12 h after the last treatment, blood samples were collected from the retro-orbital venous plexus under anesthesia (pentobarbital sodium, 50 mg/kg). Finally, all animals were euthanized by cervical dislocation to collect the lung samples for counting live bacteria. The contents of TNF-α and IL-6 in skin homogenates and serum were measured by ELISA. Skin lesion was fixed by 4% paraformaldehyde for H&E staining. The expression levels of EGF and VEGF in skin lesion were examined by immunohistochemistry. In addition, the wound scratch assay was also performed on HaCaT cells to further test whether MSI-1 improved wound healing by promoting keratinocyte migration.

[8] = tested on: penicillin resistant-E. coli isolates; test: Acute systemic E. coli infection in mice; format: in vivo, BALB/c mice; settings: 7 days; polymyxin 5 mg/kg
Method: BALB/c mice (5-6 weeks) were purchased from the Laboratory Animal Center of Yangzhou University (Yangzhou, Jiangsu, China) and intraperitoneally (ip) injected with 500 μl (5× 10^8 CFU/ml) of penicillin resistant-E. coli isolates. Mice in MSI-1 treated groups (10, 5 and 2.5 mg/kg, n=16/group) and polymyxin treated group (5 mg/kg) were administered after 2 h post bacterial inoculation. After 12 h, six mice in each group were anesthetized with pentobarbital sodium (50 mg/kg body weight, i.p) and euthanized by cervical dislocation to count bacterial colonies in blood, lung, spleen, kidney and liver. Lung homogenates were collected for Gram staining. Moreover, serum TNF-α and IL-6 were measured by ELISA kits. The procedure of H&E staining for mouse lung was adapted from a published report. The survival and weight of other mice were monitored daily up to 7 days.

`CC1(C)S[C@@H]2[C@H](NC(=O)Cc3ccccc3)C(=O)N2[C@H]1C(=O)O` [Penicillin, Penicillin G sodium salt] gave an MIC (MRSA M101) greater than 256 µg/mL, an MIC (MSSA D1) of 0.5 µg/mL and an MIC (MSSA D4) of 0.125 µg/mL. It also gave an MIC (MRSA M108) greater than 256 µg/mL, an MIC (PISP F34) of 0.5 µg/mL and an MIC (PISP F22) of 1 µg/mL. It also gave an MIC (PRSP P105) greater than 256 µg/mL, an MIC (PRSP P112) greater than 256 µg/mL and an MIC [1] greater than 256 µg/mL. It also gave an MIC (K. peneumoniae ATCC4352) of 1 µg/mL, an MIC [2] greater than 256 µg/mL and an MIC [3] greater than 256 µg/mL. It also gave an MIC (MSSE E8) of 1 µg/mL, an MIC (MRSE N104) greater than 256 µg/mL and an MIC (MSSE E3) of 2 µg/mL. The MIC (MRSE N109) was greater than 256 µg/mL, the MIC (E. cloacae S3 (AmpC (+))) was greater than 256 µg/mL and the MIC (E. faecalis) was greater than 256 µg/mL. For the same compound, the MIC (P. aeruginosa ATCC27853) was 0.5 µg/mL, the MIC [4] was greater than 256 µg/mL and the MIC (E. coli A2 (ESBLs (+))) was greater than 256 µg/mL. For the same compound, the MIC [5] was greater than 256 µg/mL, the MIC (E. faecium) was greater than 256 µg/mL and the MIC [6] was greater than 256 µg/mL. The MIC (E. coli ATCC25922) was 0.25 µg/mL, the MIC (S. pneumoniae ATCC 49619) was 0.25 µg/mL and the MIC (Shigella flexneri) was greater than 256 µg/mL. The MIC (E. coli A5 (ESBLs (+))) was greater than 256 µg/mL, the MIC (E. coli A9 (ESBLs (+))) was greater than 256 µg/mL and the MIC (S. epidermidis ATCC35984) was 0.5 µg/mL. The MIC (E. cloacae S1 (AmpC (+))) was greater than 256 µg/mL and the MIC (S. aureus ATCC25923) was 0.125 µg/mL.

With Polymyxin B the “bacterial colonies in the lung and blood” value [7] was “obviously decreased” and the body weight [8] was “marked weight maintenance effect”.
